Measured values taken from patent US3991202A, “Imidazolium salts” (Janssen Pharmaceutica N.V., priority 1974, dated 1976).

Key:
Format in all cases: cell-based
[1] = tested on: Streptococcus pyogenes; test: Antibacterial growth inhibition in phenol red dextrose broth; conditions: 168 h, Strep., tested at 100, 10, 1 μg/ml, read-out: Concentration in μ g for 100% Growth Inhibition
Method: (§1) The tests on bacteria were performed on cultures on phenol red dextrose broth medium (Difco). By using decimal dilution techniques described for the tests for antifungal activity, test media containing 100 μg, 10 μg and 1 μg of imidazolium salt per milliliter of medium were obtained. The inoculum consisted of a platinum loop (5 mm diameter) from a 24 hour broth culture. Forty-eight hours after incubation, subcultures were made from each culture for the determination of antibacterial activity of the imidazolium salts. After seven days of incubation, observations were made to determine the presence or absence of bacterial growth.

[2] = tested on: Escherichia coli; test: as above; conditions: 168 h, E. coli, tested at 100, 10, 1 μg/ml, read-out: Concentration in μ g for 100% Growth Inhibition
Method: as §1

[3] = tested on: Pseudomonas aeruginosa; test: as above; conditions: 168 h, Ps. aer., tested at 100, 10, 1 μg/ml, read-out: Concentration in μ g for 100% Growth Inhibition
Method: as §1

[4] = tested on: Salmonella pullorum gallinarum; test: as above; conditions: Salmonella enterica, 168 h; Sp. G.; tested at 100, 10, 1 μg/ml; read-out: Concentration in μ g for 100% Growth Inhibition
Method: as §1

[5] = tested on: Staphylococcus hemolyticus; test: as above; conditions: 168 h, Staph., tested at 100, 10, 1 μg/ml, read-out: Concentration in μ g for 100% Growth Inhibition
Method: as §1

[6] = tested on: Erysipelothrix insidiosa; test: as above; conditions: Erysipelothrix rhusiopathiae, 168 h; E. ins.; tested at 100, 10, 1 μg/ml; read-out: Concentration in μ g for 100% Growth Inhibition
Method: as §1

[7] = tested on: Cryptococcus neoformans; test: Antifungal growth inhibition in Sabouraud's liquid medium; conditions: Cryptococcus neoformans, 336 h; Cr.n.; tested at 100, 10, 1 μg/ml; read-out: Concentrations in μg/ml for 100% Inhibition of Growth
Method: (§2) Tests for the control of fungal organisms were performed using Sabouraud's liquid medium (1 g. of neopeptone Difco and 2 g. of glucose Difco per 100 ml. distilled water) in test tubes, each containing 4.5 ml. of liquid medium, autoclaved at 120° C for 15 minutes. The imidazolium salts were prepared for testing by dissolving in 50% ethanol to a concentration of 20 mg./ml. and thereafter diluting with sterile distilled water to obtain a concentration of 10 mg./ml. Successive decimal dilutions were then made with sterile distilled water to prepare a series of test solutions. In carrying out the test, 0.5 ml. of one of the test solutions is added to 4.5 ml. of Sabouraud's liquid medium to obtain a test medium. In this manner, from appropriate test solution, test media containing 100 μg, 10 μg and 1 μg of imidazolium salt per milliliter of medium were obtained.
(§3) Control tubes were prepared by adding 0.5 ml. of sterile distilled water to 4.5 ml. of medium. Ethanol was also added to simulate the amount which would be present in the test media. Filamentous fungi were incubated at 25° C for two to three weeks. A square block of side 2 mm. was excised and inoculated into the liquid medium. A 3-day old culture on Sabouraud's liquid medium was used for yeasts. The inoculum was 0.05 ml. per tube. All cultures were incubated at 25° C for 14 days.

[8] = tested on: Ctenomyces mentagrophytes; test: as above; conditions: Trichophyton mentagrophytes, 336 h; Ct.m.; tested at 100, 10, 1 μg/ml; read-out: Concentrations in μg/ml for 100% Inhibition of Growth
Method: as §2, §3

[9] = tested on: Microsporum canis; test: as above; conditions: Microsporum canis, 336 h; M.c.; tested at 100, 10, 1 μg/ml; read-out: Concentrations in μg/ml for 100% Inhibition of Growth
Method: as §2, §3

[10] = tested on: Trichophyton rubrum; test: as above; conditions: Trichophyton rubrum, 336 h; Tr.r.; tested at 100, 10, 1 μg/ml; read-out: Concentrations in μg/ml for 100% Inhibition of Growth
Method: as §2, §3

| Compound | MIC [1] [µg/mL] | MIC [2] [µg/mL] | MIC [3] [µg/mL] | MIC [4] [µg/mL] | MIC [6] [µg/mL] | MIC [7] [µg/mL] | MIC [8] [µg/mL] | MIC [9] [µg/mL] | MIC [10] [µg/mL] | MIC [5] [µg/mL] |
| --- | --- | --- | --- | --- | --- | --- | --- | --- | --- | --- |
| Fc1ccc(C(c2ccccc2)[n+]2ccn(CC(OCc3ccc(Cl)cc3Cl)c3ccc(Cl)cc3Cl)c2)cc1 (stereo not drawn) | 1 | 10 | 100 | 10 | 1 |  |  |  |  | 1 |
| Clc1ccc(Cn2cc[n+](CC(OCc3c(Cl)cccc3Cl)c3ccc(Cl)cc3Cl)c2)c(Cl)c1.[Cl-] (stereo not drawn) [1-(2,4-Dichlorobenzyl)-3-[2,4-dichloro-β-(2,6-dichlorobenzyloxy)phenethyl]imidazolium chloride] | 1 | 10 | 100 | 10 | 1 |  |  |  |  | 1 |
| Cc1ccccc1NC(=O)C[n+]1ccn(CC(OCc2c(Cl)cccc2Cl)c2ccc(Cl)cc2Cl)c1 (stereo not drawn) [1-[2,4-dichloro-β-(2,6-dichlorobenzyloxy)phenethyl]-3-(N-o-tolylcarbamoylmethyl)imidazolium chloride] | 1 | 100 | 100 | 10 | 10 |  |  |  |  | 10 |
| O=C(C[n+]1ccn(CC(OCc2c(Cl)cccc2Cl)c2ccc(Cl)cc2Cl)c1)Nc1ccc(F)cc1 (stereo not drawn) [1-[2,4-dichloro-β-(2,6-dichlorobenzyloxy)phenethyl]-3-[N-(p-fluorophenyl)carbamoylmethyl]imidazolium chloride] | 1 | 10 | 100 | 10 | 1 |  |  |  |  | 1 |
| O.OC(C[n+]1ccn(CC(OCc2ccc(Cl)cc2)c2ccc(Cl)cc2Cl)c1)c1ccc(Cl)cc1.[Br-] (stereo not drawn) [2,4(Cl)2C6H3/CH2C6H4pCl/CH2CHOHC6H4pCl, 1-[β-(p-Chlorobenzyloxy)-2,4-dichlorophenethyl]-3-(p-chloro-β-hydroxyphenethyl)imidazolium bromide hydrate] | 1 | 10 | 100 | 10 | 1 |  |  |  |  | 1 |
| O=C(C[n+]1ccn(CC(OCc2ccc(Cl)cc2)c2ccc(Cl)cc2Cl)c1)c1ccc(F)cc1.[Cl-] (stereo not drawn) [2,4(Cl)2C6H3/CH2C6H4pCl/CH2COC6H4pF, 1-[2,4-Dichloro-β-(p-chlorobenzyloxy)phenethyl]-3-(p-fluorophenacyl)imidazolium chloride] | 1 | 100 | 100 | 10 | 1 |  |  |  |  | 1 |
| Fc1ccc(CC[n+]2ccn(CC(OCc3ccc(Cl)cc3Cl)c3ccc(Cl)cc3Cl)c2)cc1.O.[Br-] (stereo not drawn) [(CH2)2C6H4pF, 1-[2,4-Dichloro-β-(2,4-dichlorobenzyloxy)phenethyl]-3-(p-fluorophenethyl)imidazolium bromide hydrate] | 1 | 100 | 100 | 10 | 10 |  |  |  |  | 1 |
| COc1ccc(CC[n+]2ccn(CC(OCc3ccc(Cl)cc3Cl)c3ccc(Cl)cc3Cl)c2)cc1.[Cl-] (stereo not drawn) [(CH2)2C6H4pOCH3, 1-[2,4-dichloro-β-(2,4-dichlorobenzyloxy)phenethyl]-3-(p-methoxyphenethyl)imidazolium chloride] | 1 | 100 | 100 | 10 | 1 |  |  |  |  | 1 |
| Clc1ccc(COC(Cn2cc[n+](CCc3ccccc3)c2)c2ccc(Cl)cc2Cl)c(Cl)c1.[Br-] (stereo not drawn) [(CH2)2C6H5, 1-[2,4-Dichloro-β-(2,4-dichlorobenzyloxy)phenethyl]-3-phenethylimidazolium bromide] | 1 | 10 | 100 | 10 | 1 |  |  |  |  | 1 |
| O=C(CCn1cc[n+](CC(OCc2ccc(Cl)cc2Cl)c2ccc(Cl)cc2Cl)c1)Nc1ccccc1Cl.[Cl-] (stereo not drawn) [(CH2)2CONHC6H4oCl, 1-{2-[N-(o-Chlorophenyl)carbamoyl]ethyl}-3-[2,4-dichloro-β-(2,4-dichlorobenzyloxy)phenethyl]imidazolium chloride] | 1 | 10 | 100 | 10 | 1 |  |  |  |  | 1 |
| O=C(Cn1cc[n+](CC(OCc2ccc(Cl)cc2Cl)c2ccc(Cl)cc2Cl)c1)c1ccc(Cl)cc1Cl.[Cl-] (stereo not drawn) [CH2COC6H32,4(Cl)2, 1-(2,4-dichlorobenzoylmethyl)-3-[2,4-dichloro-β-(2,4-dichlorobenzyloxy)phenethyl]imidazolium chloride] |  |  |  |  |  | 1 | 1 | 10 | 1 |  |
| COc1cccc(NC(=O)C[n+]2ccn(CC(OCc3ccc(Cl)cc3Cl)c3ccc(Cl)cc3Cl)c2)c1 (stereo not drawn) [CH2CONHC6H4m(OCH3), hydrate] |  |  |  |  |  | 10 | 10 | 10 | 1 |  |
| O=C(C[n+]1ccn(CC(OCc2ccc(Cl)cc2Cl)c2ccc(Cl)cc2Cl)c1)Nc1ccccc1Cl (stereo not drawn) [CH2CONHC6H4oCl, 1-[N-(o-chlorophenyl)carbamoylmethyl]-3-[2,4-dichloro-β-(2,4-dichlorobenzyloxy)phenethyl]imidazolium chloride] |  |  |  |  |  | 10 | 10 | 10 | 1 |  |

More lines, main results first:

| MIC [1] [µg/mL] | MIC [2] [µg/mL] | MIC [3] [µg/mL] | MIC [4] [µg/mL] | MIC [6] [µg/mL] | MIC [7] [µg/mL] | MIC [8] [µg/mL] | MIC [9] [µg/mL] | MIC [10] [µg/mL] | Compound | MIC [5] [µg/mL] |
| --- | --- | --- | --- | --- | --- | --- | --- | --- | --- | --- |
|  |  |  |  |  | 100 | 10 | 1 | 1 | O=C(C[n+]1ccn(CC(OCc2ccc(Cl)cc2Cl)c2ccc(Cl)cc2Cl)c1)Nc1ccccc1Oc1ccccc1 (stereo not drawn) [CH2CONHC6H4oOPh, 1-[2,4-dichloro-β-(2,4-dichlorobenzyloxy)phenethyl]-3-[N-(o-phenoxyphenyl)carbamoylmethyl]imidazolium chloride hydrate] |  |
|  |  |  |  |  | 100 | 10 | 1 | 1 | O=C(C[n+]1ccn(CC(OCc2ccc(Cl)cc2Cl)c2ccc(Cl)cc2Cl)c1)NCc1ccccc1Cl (stereo not drawn) [CH2CONHCH2C6H4oCl, 1-[N-(o-Chlorobenzyl)carbamoylmethyl]3-[2,4-dichloroβ-(2,4-dichlorobenzyloxy)phenethyl]imidazolium chloride] |  |
|  |  |  |  |  | 100 | 10 | 10 | 1 | Fc1ccc(C(c2ccc(Cl)cc2)[n+]2ccn(CC(OCc3ccc(Cl)cc3Cl)c3ccc(Cl)cc3Cl)c2)cc1 (stereo not drawn) [drawing 61] |  |
|  |  |  |  |  | 100 | 10 | 10 | 1 | CCCCCCCC[n+]1ccn(CC(OCc2ccc(Cl)cc2Cl)c2ccc(Cl)cc2Cl)c1.[Br-] (stereo not drawn) [nC8H17, 1-[2,4-dichloro-β-(2,4-dichlorobenzyloxy)phenethyl]3-n-octylimidazolium bromide] |  |
|  |  |  |  |  | 10 | 10 | 10 | 10 | O=C(C[n+]1ccn(CC(OCc2ccc(Cl)cc2)c2ccc(Cl)cc2)c1)c1ccc(F)cc1 (stereo not drawn) [pClC6H4/CH2C6H4pCl/CH2COC6H4pF, 1-[p-Chloro-β-(p-chlorobenzyloxy)phenethyl]-3-(p-flurophenacyl)imidazolium chloride] |  |
|  |  |  |  |  | 10 | 10 | 10 | 10 | O=C(C[n+]1ccn(CC(OCc2ccc(Cl)cc2Cl)c2ccc(Cl)cc2)c1)c1ccc(F)cc1.[Cl-] (stereo not drawn) [pClC6H4/CH2C6H32,4(Cl)2/CH2COC6H4pF, 1-[p-chloro-β-(2,4-dichlorobenzyloxy)phenethyl]-3-(p-fluorophenacyl)imidazolium chloride] |  |
